Measurements as given in publication PMC7156458, “Synthetic biology based construction of biological activity-related library of fungal decalin-containing diterpenoid pyrones” (Nature Communications, 2020).

Target: Aβ42 (Homo sapiens, UniProt P05067)
Experiment: Th-T (thioflavin-T) assay of Aβ42 aggregation
Type: biochemical
Conditions: for Th-T assay plate reading, mean of three wells (Supplementary Fig. 47): source data, Ab alone and No Ab as controls

Chain of Aβ42 (P05067 672-713): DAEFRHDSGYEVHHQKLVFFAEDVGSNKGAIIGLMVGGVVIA

## C=C1CC[C@H]2[C@]3(C)C[C@H](C=C(C)C)O[C@H]3CC[C@]2(C)[C@@H]1Cc1c(OC)oc(CO)c(C)c1=O [Compound 18]
Aβ42 aggregation time course, reading M117
  Th-T fluorescence, mean of three wells: 3.827
Aβ42 aggregation time course, reading M118
  Th-T fluorescence, mean of three wells: 3.826
Aβ42 aggregation time course, reading M119
  Th-T fluorescence, mean of three wells: 3.802
Aβ42 aggregation time course, reading M120
  Th-T fluorescence, mean of three wells: 3.809
Aβ42 aggregation time course, reading M121
  Th-T fluorescence, mean of three wells: 3.768
Aβ42 aggregation time course, reading M122
  Th-T fluorescence, mean of three wells: 3.8239
Aβ42 aggregation time course, reading M123
  Th-T fluorescence, mean of three wells: 3.779
Aβ42 aggregation time course, reading M124
  Th-T fluorescence, mean of three wells: 3.775
Aβ42 aggregation time course, reading M125
  Th-T fluorescence, mean of three wells: 3.791
Aβ42 aggregation time course, reading M126
  Th-T fluorescence, mean of three wells: 3.753
Aβ42 aggregation time course, reading M127
  Th-T fluorescence, mean of three wells: 3.782
Aβ42 aggregation time course, reading M128
  Th-T fluorescence, mean of three wells: 3.792
Aβ42 aggregation time course, reading M129
  Th-T fluorescence, mean of three wells: 3.762
Aβ42 aggregation time course, reading M130
  Th-T fluorescence, mean of three wells: 3.763
Aβ42 aggregation time course, reading M131
  Th-T fluorescence, mean of three wells: 3.755
Aβ42 aggregation time course, reading M132
  Th-T fluorescence, mean of three wells: 3.815
Aβ42 aggregation time course, reading M133
  Th-T fluorescence, mean of three wells: 3.777
Aβ42 aggregation time course, reading M134
  Th-T fluorescence, mean of three wells: 3.764
Aβ42 aggregation time course, reading M135
  Th-T fluorescence, mean of three wells: 3.756
Aβ42 aggregation time course, reading M136
  Th-T fluorescence, mean of three wells: 3.746
Supplementary Fig. 47, reading M137
  Th-T fluorescence, mean of three wells: 3.774
Supplementary Fig. 47, reading M138
  Th-T fluorescence, mean of three wells: 3.771
Supplementary Fig. 47, reading M139
  Th-T fluorescence, mean of three wells: 3.713
Supplementary Fig. 47, reading M140
  Th-T fluorescence, mean of three wells: 3.758
Supplementary Fig. 47, reading M141
  Th-T fluorescence, mean of three wells: 3.7322
Supplementary Fig. 47, reading M142
  Th-T fluorescence, mean of three wells: 3.721
Supplementary Fig. 47, reading M143
  Th-T fluorescence, mean of three wells: 3.695
Supplementary Fig. 47, reading M144
  Th-T fluorescence, mean of three wells: 3.702
Supplementary Fig. 47, reading M145
  Th-T fluorescence, mean of three wells: 3.716
Supplementary Fig. 47 source data, measurement M37 of time course
  Th-T fluorescence, mean of three wells: 3.803
Supplementary Fig. 47 source data, measurement M38 of time course
  Th-T fluorescence, mean of three wells: 3.788
Supplementary Fig. 47 source data, measurement M39 of time course
  Th-T fluorescence, mean of three wells: 3.823
Supplementary Fig. 47 source data, measurement M40 of time course
  Th-T fluorescence, mean of three wells: 3.844
Supplementary Fig. 47 source data, measurement M41 of time course
  Th-T fluorescence, mean of three wells: 3.831
Supplementary Fig. 47 source data, measurement M42 of time course
  Th-T fluorescence, mean of three wells: 3.8461
Supplementary Fig. 47 source data, measurement M43 of time course
  Th-T fluorescence, mean of three wells: 3.853
Supplementary Fig. 47 source data, measurement M44 of time course
  Th-T fluorescence, mean of three wells: 3.884
Supplementary Fig. 47 source data, measurement M45 of time course
  Th-T fluorescence, mean of three wells: 3.893
Supplementary Fig. 47 source data, measurement M46 of time course
  Th-T fluorescence, mean of three wells: 3.909
Supplementary Fig. 47 source data, measurement M47 of time course
  Th-T fluorescence, mean of three wells: 3.912
Supplementary Fig. 47 source data, measurement M48 of time course
  Th-T fluorescence, mean of three wells: 3.912
Supplementary Fig. 47 source data, measurement M49 of time course
  Th-T fluorescence, mean of three wells: 3.934
Supplementary Fig. 47 source data, measurement M50 of time course
  Th-T fluorescence, mean of three wells: 3.962
Supplementary Fig. 47 source data, measurement M51 of time course
  Th-T fluorescence, mean of three wells: 3.932
Supplementary Fig. 47 source data, measurement M52 of time course
  Th-T fluorescence, mean of three wells: 3.964
Supplementary Fig. 47 source data, measurement M53 of time course
  Th-T fluorescence, mean of three wells: 3.941
Supplementary Fig. 47 source data, measurement M54 of time course
  Th-T fluorescence, mean of three wells: 3.968
Supplementary Fig. 47 source data, measurement M55 of time course
  Th-T fluorescence, mean of three wells: 3.9543
Supplementary Fig. 47 source data, measurement M56 of time course
  Th-T fluorescence, mean of three wells: 4.004
Measurement M1
  Th-T assay plate reading, mean of three wells (Supplementary Fig. 47): 0.2027
Measurement M2
  Th-T assay plate reading, mean of three wells (Supplementary Fig. 47): 0.2169
Measurement M3
  Th-T assay plate reading, mean of three wells (Supplementary Fig. 47): 0.2567
Measurement M4
  Th-T assay plate reading, mean of three wells (Supplementary Fig. 47): 0.2868
Measurement M5
  Th-T assay plate reading, mean of three wells (Supplementary Fig. 47): 0.363
Measurement M6
  Th-T assay plate reading, mean of three wells (Supplementary Fig. 47): 0.3665
Measurement M7
  Th-T assay plate reading, mean of three wells (Supplementary Fig. 47): 0.43
Measurement M8
  Th-T assay plate reading, mean of three wells (Supplementary Fig. 47): 0.4699
Measurement M9
  Th-T assay plate reading, mean of three wells (Supplementary Fig. 47): 0.5243
Measurement M10
  Th-T assay plate reading, mean of three wells (Supplementary Fig. 47): 0.5956
Measurement M11
  Th-T assay plate reading, mean of three wells (Supplementary Fig. 47): 0.7582
Measurement M12
  Th-T assay plate reading, mean of three wells (Supplementary Fig. 47): 1.169
Measurement M13
  Th-T assay plate reading, mean of three wells (Supplementary Fig. 47): 1.941
Measurement M14
  Th-T assay plate reading, mean of three wells (Supplementary Fig. 47): 2.67
Measurement M15
  Th-T assay plate reading, mean of three wells (Supplementary Fig. 47): 3.082
Measurement M16
  Th-T assay plate reading, mean of three wells (Supplementary Fig. 47): 3.287
Reading M17, Supplementary Fig. 47 source data
  Th-T fluorescence, mean of three wells: 3.39
Reading M18, Supplementary Fig. 47 source data
  Th-T fluorescence, mean of three wells: 3.467
Reading M19, Supplementary Fig. 47 source data
  Th-T fluorescence, mean of three wells: 3.485
Reading M20, Supplementary Fig. 47 source data
  Th-T fluorescence, mean of three wells: 3.511
Reading M21, Supplementary Fig. 47 source data
  Th-T fluorescence, mean of three wells: 3.555
Reading M22, Supplementary Fig. 47 source data
  Th-T fluorescence, mean of three wells: 3.568
Reading M23, Supplementary Fig. 47 source data
  Th-T fluorescence, mean of three wells: 3.6
Reading M24, Supplementary Fig. 47 source data
  Th-T fluorescence, mean of three wells: 3.61
Reading M25, Supplementary Fig. 47 source data
  Th-T fluorescence, mean of three wells: 3.637
Reading M26, Supplementary Fig. 47 source data
  Th-T fluorescence, mean of three wells: 3.637
Reading M27, Supplementary Fig. 47 source data
  Th-T fluorescence, mean of three wells: 3.663
Reading M28, Supplementary Fig. 47 source data
  Th-T fluorescence, mean of three wells: 3.673
Reading M29, Supplementary Fig. 47 source data
  Th-T fluorescence, mean of three wells: 3.697
Reading M30, Supplementary Fig. 47 source data
  Th-T fluorescence, mean of three wells: 3.695
Reading M31, Supplementary Fig. 47 source data
  Th-T fluorescence, mean of three wells: 3.715
Reading M32, Supplementary Fig. 47 source data
  Th-T fluorescence, mean of three wells: 3.7502
Reading M33, Supplementary Fig. 47 source data
  Th-T fluorescence, mean of three wells: 3.748
Reading M34, Supplementary Fig. 47 source data
  Th-T fluorescence, mean of three wells: 3.745
Reading M35, Supplementary Fig. 47 source data
  Th-T fluorescence, mean of three wells: 3.779
Reading M36, Supplementary Fig. 47 source data
  Th-T fluorescence, mean of three wells: 3.8
Time course, reading M57
  Th-T fluorescence, mean of three wells: 3.991
Time course, reading M58
  Th-T fluorescence, mean of three wells: 4.013
Time course, reading M59
  Th-T fluorescence, mean of three wells: 3.958
Time course, reading M60
  Th-T fluorescence, mean of three wells: 3.988
Time course, reading M61
  Th-T fluorescence, mean of three wells: 3.973
Time course, reading M62
  Th-T fluorescence, mean of three wells: 3.97
Time course, reading M63
  Th-T fluorescence, mean of three wells: 3.951
Time course, reading M64
  Th-T fluorescence, mean of three wells: 3.976
Time course, reading M65
  Th-T fluorescence, mean of three wells: 3.959
Time course, reading M66
  Th-T fluorescence, mean of three wells: 3.962
Time course, reading M67
  Th-T fluorescence, mean of three wells: 3.958
time-course reading M97, Supplementary Fig. 47 source data
  Th-T fluorescence, mean of three wells: 3.893
time-course reading M98, Supplementary Fig. 47 source data
  Th-T fluorescence, mean of three wells: 3.89
time-course reading M99, Supplementary Fig. 47 source data
  Th-T fluorescence, mean of three wells: 3.924
time-course reading M100, Supplementary Fig. 47 source data
  Th-T fluorescence, mean of three wells: 3.864
time-course reading M101, Supplementary Fig. 47 source data
  Th-T fluorescence, mean of three wells: 3.863
time-course reading M102, Supplementary Fig. 47 source data
  Th-T fluorescence, mean of three wells: 3.862
time-course reading M103, Supplementary Fig. 47 source data
  Th-T fluorescence, mean of three wells: 3.898
time-course reading M104, Supplementary Fig. 47 source data
  Th-T fluorescence, mean of three wells: 3.892
time-course reading M105, Supplementary Fig. 47 source data
  Th-T fluorescence, mean of three wells: 3.876
time-course reading M106, Supplementary Fig. 47 source data
  Th-T fluorescence, mean of three wells: 3.8607
time-course reading M107, Supplementary Fig. 47 source data
  Th-T fluorescence, mean of three wells: 3.854
time-course reading M108, Supplementary Fig. 47 source data
  Th-T fluorescence, mean of three wells: 3.8485
time-course reading M109, Supplementary Fig. 47 source data
  Th-T fluorescence, mean of three wells: 3.821
time-course reading M110, Supplementary Fig. 47 source data
  Th-T fluorescence, mean of three wells: 3.872
time-course reading M111, Supplementary Fig. 47 source data
  Th-T fluorescence, mean of three wells: 3.799
time-course reading M112, Supplementary Fig. 47 source data
  Th-T fluorescence, mean of three wells: 3.848
time-course reading M113, Supplementary Fig. 47 source data
  Th-T fluorescence, mean of three wells: 3.819
time-course reading M114, Supplementary Fig. 47 source data
  Th-T fluorescence, mean of three wells: 3.862
time-course reading M115, Supplementary Fig. 47 source data
  Th-T fluorescence, mean of three wells: 3.831
time-course reading M116, Supplementary Fig. 47 source data
  Th-T fluorescence, mean of three wells: 3.8198
